Assay results: patent US10471030B2, “Immunomodulatory and differentiating function selective retinoid and rexinoid compounds in combination with immune modulators for cancer immunotherapy” (Io Therapeutics, Inc., priority 2017, dated 2019)

Experiments:
H929 Luc+ cells = assay: subcutaneous xenograft model of MM-niche interactions with WT or Smo-KO stroma, bioluminescence; format: in vivo, NSG mice; details: IRX 10 mg/kg i.p. daily, BTZ 0.5 mg/kg i.p. twice weekly
Experimental: 1×10^6 H929 Luc+ cells and 1×10^6 mouse BM stromal cells were resuspended in 100 μl […]®, diluted with RPMI (1:1), and injected subcutaneously into 16-week-old male NSG mice. After 4 days, treatment with BTZ (0.5 mg/kg i.p. twice weekly) and IRX (10 mg/kg i.p. daily) was initiated. Tumor burden was assessed by bioluminescence using the In Vivo Imaging System (PerkinElmer). For imaging, mice were exposed to 120 mg/kg D-luciferin via intraperitoneal injection […] before imaging and were anesthetized using isoflurane. Images were analyzed with Living Image Software, version 2.5 (PerkinElmer), and data were quantified as photons/second.
To study to what extent an RA-low environment created by the BM stroma and enhanced by MM cells via paracrine Hedgehog signaling contributes to BTZ resistance, a xenograft model of MM-niche interactions was developed. Each mouse carried 2 subcutaneous tumors consisting of H929 Luc+ cells and either WT (anterior tumors) or Smo-KO stroma (posterior tumors). Mice were treated with IRX (10 mg/kg i.p. daily), BTZ (0.5 mg/kg i.p. twice weekly), or a combination of both. The growth of tumors bearing WT or Smo-KO stroma was not different in untreated or IRX-treated groups (FIGS. 9 and 10). […] While some tumors in the treatment group receiving combined IRX and BTZ appeared to have regressed completely, even after anatomical study, this was not the case for all the mice in this group.

[1] = test system: MM H929 cell lines and MM CD138+ primary cells; assay: mRNA expression of B cell and PC markers in MM cells, liquid or BM stroma co-culture (qRT-PCR); format: cell-based, human; details: 1 μM for 5 days
Experimental: 24-well plates were coated with 0.1% gelatin in PBS for 30 min at 37° C. The gelatin solution was removed, and the stromal cells were cultured overnight at a density of 5×10^4 cells/well to obtain a confluent monolayer. At that time, MM cell lines or primary MM cells (1×10^5 in 2 ml) were added to the stroma cultures. The stroma cocultures were incubated at 37° C. in RPMI containing 10% FCS, L-glutamine, and P/S, with or without AGN194310 (1 μM for 5 days), R115866 (1 μM for 5 days), IRX5183 (1 μM for 5 days), or BTZ (2.5 nM for 48 hr).
Total RNA was extracted using the RNeasy Mini Kit (QIAGEN) according to the manufacturer's instructions. cDNA was synthesized by reverse transcription using the iScript cDNA Synthesis Kit (Bio-Rad). qRT-PCR was performed with iTaq SYBR Green Supermix (Bio-Rad) using sequence specific primers. Gene expression was normalized to GAPDH, and relative quantification was calculated using ΔΔCt. All experiments were performed in duplicate and run on the Bio-Rad CFX96 machine.
The BM microenvironment (also called “niche”) limits PC differentiation by modulating retinoid signaling. A population of MM progenitors, phenotypically similar to B cells, is intrinsically resistant to BTZ and contributes to MRD and relapse. To investigate whether the BM niche plays a role in determining the phenotype of MM cells, the mRNA expression of B cell and PC markers in MM H929 cell lines (FIGS. 3A-D) and MM CD138+ primary cells (FIGS. 3E-H) was analyzed following co-culture with mouse BM stroma using human-specific primers. […] In contrast, co-culture of MM cells with BM stroma decreased the mRNA expression of B lymphocyte-induced maturation protein 1 (BLIMP1) and spliced X box-binding protein 1 (XBP1s) (FIG. 3B, C, F, G), which are critical mediators of PC differentiation.
The BM niche regulates hematopoietic stem cell (HSC) differentiation by expressing the retinoid-inactivating enzyme CYP26. CYP26 enzymes were highly expressed in BM mesenchymal cells, while their expression was barely detectable in MM cells. Since retinoid signaling promotes PC differentiation and potentiates Ig secretion, it was determined whether stromal CYP26 is responsible for inducing a B cell phenotype in MM cells. To this end, co-culture conditions were treated with the CYP26 inhibitor R115866 (R115) or the CYP26-resistant RA receptor α-selective (RARα-selective) retinoid IRX5183 (IRX).

CC1(C)CCC(C)(C)c2c1cc(C(=O)Nc1cc(F)c(C(=O)O)c(F)c1)c(O)c2Cl [IRX5183]
growth or response of tumors bearing WT versus Smo-KO stroma (H929 Luc+ cells): not different
mRNA expression of BCL6, BLIMP1, XBP1s, CHOP markers ([1]; BM stroma co-cultures): restored all markers to levels comparable to those of liquid control conditions
expression of differentiation markers ([1]; liquid conditions (absence of stroma)): induced comparable changes, irrespective of the presence or absence of BM stroma
